Measurements taken from US9795656B2, “Treatment of ocular diseases” (MARLYN NUTRACEUTICALS INC, priority 2006, dated 2017).
Entries after “also recorded” stand apart in the source; their conditions may differ.

B1: Papain (protein, UniProt P00784 134-345, looked up)
Papain: IPEYVDWRQKGAVTPVKNQGSCGSCWAFSAVVTIEGIIKIRTGNLNEYSEQELLDCDRRSYGCNGGYPWSALQLVAQYGIHYRNTYPYEGVQRYCRSREKGPYAAKTDGVRQVQPYNEGALLYSIANQPVSVVLEAAGKDFQLYRGGIFVGPCGNKVDHAVAAVGYGPNYILIKNSWGTGWGENGYIRIKRGTGNSYGVCGLYTSSFYPVKN

Legend:
HUVEC [1] = assay: MTT assay with treated HUVEC (antiproliferative activity); type: cell-based, Human; settings: for inhibition of VEGF stimulated proliferation (MTT): VEGF stimulated HUVEC, FIG. 5; for inhibition of VEGF stimulated proliferation (MTT) / % growth (MTT) / antiproliferative effect (MTT), in words: 48 hours; for % growth (MTT): at concentrations as low as 25 μg/ml; for antiproliferative effect (MTT), in words: concentration-response
Protocol: The antiproliferative activity of bromelain, nattokinase and papain and their mixtures was assessed using an 3-(4,5-dimethylthiazol-2-yl)-2,5-diphenyltetrazoliumbromide (MTT) assay. […] Cells were incubated further 48 hours at 37° C./95% humidity. The MTT Assay was carried out using an EZ4U MTT Kit (Biomedica, Austria; according to the instructions of the manufacturer). Optical density was measured at 450 nm with a reference wavelength of 620 nm. Results are expressed as % proliferation with 100% being the proliferation of the VEGF treated control.
To assess a possible antiproliferative activity of Rutosid an 3-(4,5-dimethylthiazol-2-yl)-2,5-diphenyltetrazoliumbromide (MTT) Assay was used. […] Cells were incubated further 48 hours at 37° C./95% humidity. The MTT-Assay was carried out using a EZ4U MTT Kit (Biomedica, Austria) according to the instructions of the manufacturer) Optical density was measured at 450 nm with a reference wavelength of 620 nm. Results are expressed as % proliferation with 100% being the proliferation of the VEGF treated control.

HUVEC [2] = tested on: HUVEC
Protocol: (§1) The antiproliferative activity of bromelain, nattokinase and papain was assessed using a Lactate Dehydrogenase (LDH) Assay. Human Umbilical Vein Endothelial Cells (HUVEC) from semi-confluent cultures were harvested by treatment with trypsin, seeded at a density of 2500 cells/well into 96-well microplates, previously coated with human fibronectin. In oder to allow proper attachment, cells were incubated for 24 hours in Endothelial Basal medium 2MV (Cambrex Biochemicals) containing 10% Fetal Calf Serum, 60 μg/ml Endothelial cell Growth Supplement, hrEGF, hrFGF2, hrIGF, hrVEGF, Ascorbic Acid and Heparin. After attachment, cells were starved by incubation at 37° C./95% humidity in Medium 199+10% Fetal Calf Serum (FCS) without growth factors. After 24 hours, the supernatant was replaced by Medium 199 containing 10% FCS, VEGF and varying concentrations of the enzymes. After an incubation period of 48 hours, supernatant was harvested and an LDH assay was performed according to the instructions of the manufacturer (Promega, Germany): 50 μl aliquots from all wells were transferred to a fresh 96-well flat-bottom (enzymatic assay) plate. The Assay Buffer was added to the Substrate Mix and mixed gently. 50 μl of reconstituted Substrate Mix was added to each well. The plate was incubated for 30 minutes at room temperature. 50 μl of Stop Solution was added to each well. Within one hour, optical density was measured at 490 nm with a reference wavelength of 620 nm. Results are expressed as % untreated control.
(§2) To test a possible cytotoxic activity of rutosid an Lactate Dehydrogenase (LDH) Assay was used. Human Umbilical Vein Endothelial Cells (HUVEC) from semi-confluent cultures were harvested by treatment with trypsin, seeded at a density of 2500 cells/well into 96-well microplates, previously coated with human fibronectin. In oder to allow proper attachment, cells were incubated for 24 hours in Endothelial Basal medium 2MV (Cambrex Biochemicals) containing 10% Fetal Calf Serum, 60 μg/ml Endothelial cell Growth Supplement, hrEGF, hrFGF-2, hrIGF, hrVEGF, ascorbic acid and heparin. After attachment, cells were starved by incubation at 37° C./95% humidity in Medium 199+10% Fetal Calf Serum (FCS) without growth factors. After 24 hours, the supernatant was replaced by Medium 199 containing 10% FCS, VEGF and varying concentrations of the enzymes. After an incubation period of 48 hours, supernatant was harvested and an LDH assay was performed according to the instructions of the manufacturer (Promega, Germany): 50 μl aliquots from all wells where transferred to a fresh 96-well flat-bottom (enzymatic assay) plate. […] Within one hour, optical density was measured at 490 nm with a reference wavelength of 620 nm. Results are expressed as % untreated control.

HUVEC [3] = assay: Tube formation assay on Matrigel (antiangiogenic activity); type: cell-based, Human; settings: for inhibition of VEGF induced tube formation: FIG. 3, FIG. 7 right; for inhibition of spontaneous tube formation: no VEGF, FIG. 7 left; for ability to inhibit or prevent angiogenesis: general statement on proteases of mammalian origin
Protocol: Methods: Antiangiogenic activity was assessed using a tube formation assay. Growth factor reduced Matrigel (Becton Dickinson, Vienna) was thawed at a temperature of 4° C. 50 μl per well were pipetted into the wells of a 96 well microtiter plate. The plate was left at 4° C. for 24 hours. Prior to the experiment, the plate was incubated for 30-60 minutes at 37° C. to solidify the gel. HUVEC were harvested by treatment with trypsin and seeded into Matrigel coated 96 well microplates at a density of 20.000 cells per well in Endothelial Growth Medium 2(MV) (Lonza, Brussels) supplemented with ascorbic acid and hydrocortisone according to the instructions of the manufacturer as well as […] heparin and 1% Fetal Bovine Serum. Drugs and VEGF were added to the desired concentrations. After further 16 hrs to 18, wells were photographed. The total length of tubes was determined using the ImageJ Software, measured by the Neuron Length Determination Plugin.

HUVEC [4] = assay: LDH release into supernatant of treated HUVEC (toxicity test); settings: up to a level of including 25 μg/ml; 2 days of incubation
Protocol: as §1, §2

Molecule | inhibition of VEGF induced tube formation (HUVEC [3]) | inhibition of spontaneous tube formation (HUVEC [3]) | toxic effects on HUVEC (LDH release) (HUVEC [4]) | antiproliferative effect (MTT), in words (HUVEC [1]) | other results
C[C@@H]1O[C@@H](OC[C@H]2O[C@@H](Oc3c(-c4ccc(O)c(O)c4)oc4cc(O)cc(O)c4c3=O)[C@H](O)[C@@H](O)[C@@H]2O)[C@H](O)[C@H](O)[C@H]1O [Rutosid] | – | – | – | – | inhibition of VEGF stimulated proliferation (MTT) (HUVEC [1]): No inhibition of proliferation; inhibition of VEGF stimulated proliferation (MTT) (HUVEC [1]; listed as rutosid): does not inhibit; toxicity in HUVEC (LDH), overall (HUVEC [2]): negligible
Bromelain | inhibited formation of tubes almost to the same extend as in untreated HUVEC | inhibited formation of tubes | did not show toxic effects | clear antiproliferative effect | inhibition of VEGF induced tube formation (HUVEC [3]; listed as bromelain): significant decrease; % growth (MTT) (HUVEC [1]; 100% = VEGF treated control): 75%
Nattokinase | significant decrease; also recorded: inhibited formation of tubes almost to the same extend as in untreated HUVEC | inhibited formation of tubes | did not show toxic effects | clear antiproliferative effect | –
chymotrypsin [reference compound] | but not chymotrypsin or trypsin inhibited formation of tubes | but not chymotrypsin or trypsin inhibited formation of tubes | – | – | ability to inhibit or prevent angiogenesis (HUVEC [3]): not able to inhibit or prevent angiogenesis
ficin | significant decrease; also recorded: inhibited formation of tubes almost to the same extend as in untreated HUVEC | inhibited formation of tubes | – | – | –
serrapeptase | significant decrease; also recorded: inhibited formation of tubes almost to the same extend as in untreated HUVEC | inhibited formation of tubes | – | – | –
trypsin [reference compound] | but not chymotrypsin or trypsin inhibited formation of tubes | but not chymotrypsin or trypsin inhibited formation of tubes | – | – | ability to inhibit or prevent angiogenesis (HUVEC [3]): not able to inhibit or prevent angiogenesis
B1 | significant decrease; also recorded: inhibited formation of tubes almost to the same extend as in untreated HUVEC | inhibited formation of tubes | did not show toxic effects | clear antiproliferative effect | % tube formation (HUVEC [3]; in presence of VEGF, 100% = samples treated with VEGF only): 60.14%; % growth (MTT) (HUVEC [1]; 100% = VEGF treated control): 75%; % Proliferation (HUVEC [1]; combinations of bromelain, nattokinase and papain in presence of VEGF, 100% = VEGF treated control): 75.45%
